Test results as given in the NIST ThermoML archive (doi:10.1021/je900550v).

Details: 101.33 kPa, Liquid; for speed of sound: Pulse-echo method; for mass density: Vibrating tube method

CCCC(=O)[O-].C[NH2+]CCO [N-methyl-2-hydroxyethylammonium butanoate]
Details | mass density [kg/m3] | speed of sound [m/s] | viscosity [mPa·s]
322.91 K | 1022.43 | 1537 | –
323.15 K | – | – | 71.53
323.16 K | 1022.26 | 1536.2 | –
323.41 K | 1022.08 | 1535.4 | –
323.65 K | 1021.91 | 1534.7 | –
323.91 K | 1021.74 | 1533.9 | –
324.16 K | 1021.56 | 1533.1 | –
324.41 K | 1021.39 | 1532.3 | –
324.65 K | 1021.22 | 1531.5 | –
324.9 K | 1021.04 | 1530.8 | –
325.16 K | 1020.87 | 1530 | –
325.4 K | 1020.69 | 1529.2 | –
325.66 K | 1020.52 | 1528.4 | –
325.9 K | 1020.35 | 1527.7 | –
326.16 K | 1020.17 | 1526.9 | –
326.41 K | 1019.99 | 1526.1 | –
326.66 K | 1019.82 | 1525.3 | –
326.9 K | 1019.65 | 1524.5 | –
327.16 K | 1019.47 | 1523.7 | –
327.4 K | 1019.29 | 1522.9 | –
327.66 K | 1019.12 | 1522.2 | –
327.9 K | 1018.95 | 1521.4 | –
328.15 K | 1018.77 | 1520.6 | –
328.41 K | 1018.6 | 1519.8 | –
328.66 K | 1018.42 | 1519 | –
328.9 K | 1018.25 | 1518.2 | –
329.16 K | 1018.07 | 1517.4 | –
329.4 K | 1017.9 | 1516.6 | –
329.65 K | 1017.72 | 1515.9 | –
329.9 K | 1017.54 | 1515.1 | –
330.16 K | 1017.37 | 1514.3 | –
330.41 K | 1017.19 | 1513.5 | –
330.66 K | 1017.01 | 1512.7 | –
330.91 K | 1016.84 | 1511.9 | –
331.16 K | 1016.66 | 1511.1 | –
331.41 K | 1016.48 | 1510.3 | –
331.66 K | 1016.3 | 1509.6 | –
331.91 K | 1016.13 | 1508.8 | –
332.16 K | 1015.96 | 1508 | –
332.41 K | 1015.78 | 1507.2 | –
332.66 K | 1015.6 | 1506.4 | –
332.91 K | 1015.43 | 1505.6 | –
333.16 K | 1015.25 | 1504.9 | –
333.41 K | 1015.07 | 1504.1 | –
333.66 K | 1014.89 | 1503.3 | –
333.91 K | 1014.72 | 1502.5 | –
334.16 K | 1014.54 | 1501.7 | –
334.41 K | 1014.36 | 1500.9 | –
334.66 K | 1014.18 | 1500.2 | –
334.91 K | 1014.01 | 1499.4 | –
335.16 K | 1013.83 | 1498.6 | –
335.41 K | 1013.65 | 1497.8 | –
335.66 K | 1013.47 | 1497 | –
335.91 K | 1013.3 | 1496.2 | –
336.16 K | 1013.12 | 1495.4 | –
336.41 K | 1012.94 | 1494.7 | –
336.66 K | 1012.76 | 1493.9 | –
336.9 K | 1012.58 | 1493.1 | –
337.16 K | 1012.4 | 1492.3 | –
337.4 K | 1012.22 | 1491.5 | –
337.66 K | 1012.04 | 1490.8 | –
337.9 K | 1011.86 | 1490 | –
338.15 K | 1011.69 | 1489.3 | –
